According to PMC12405480, “Endogenous ligands of bovine FFAR2/GPR43 display distinct pharmacological properties” (Frontiers in Cell and Developmental Biology, 2025):

Key:
[1] = target: T1, bFFAR2 (bovine FFAR2/GPR43) (Bos taurus, UniProt A0ACM8QIU6); test: BRET, mini-Gαi recruitment to bFFAR2-Rluc8, HEK293A; assay type: cell-based
T1 construct: full-length synthetic cDNA, N-terminal FLAG tag; transiently expressed in HEK293A cells
T1 sequence (A0ACM8QIU6 1-329): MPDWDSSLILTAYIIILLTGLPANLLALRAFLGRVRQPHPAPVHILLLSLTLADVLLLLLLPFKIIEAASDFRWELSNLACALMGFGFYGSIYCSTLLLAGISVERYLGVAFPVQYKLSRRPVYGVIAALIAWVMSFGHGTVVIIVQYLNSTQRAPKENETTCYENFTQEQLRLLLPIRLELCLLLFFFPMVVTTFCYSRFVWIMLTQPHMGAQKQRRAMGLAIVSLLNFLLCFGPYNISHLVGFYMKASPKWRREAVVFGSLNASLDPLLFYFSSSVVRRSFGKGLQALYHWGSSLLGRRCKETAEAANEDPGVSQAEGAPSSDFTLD
Excerpt: BRET, mini-Gαi recruitment to bFFAR2-Rluc8, HEK293A on bFFAR2 (bovine FFAR2/GPR43)

[2] = target: T1, bFFAR2 (bovine FFAR2/GPR43); test: SRE luciferase reporter gene assay, HEK293A expressing bFFAR2; assay type: cell-based
Excerpt: SRE luciferase reporter gene assay, HEK293A expressing bFFAR2 on bFFAR2 (bovine FFAR2/GPR43)

EC50 [1]	Structure (SMILES)	other results
977 µM	CCC(=O)O [C3:0]	–
75.9 µM	CC(C)CC(=O)O [3MB, 3-methyl-butanoic acid]	–
9770 µM	CC(=O)O [C2:0]	–
61.7 µM	CCCCC(=O)O [C5:0]	–

Continued, molecule first:

Structure (SMILES)	EC50 [1]	other results
CCCC(=O)O [C4:0]	129 µM	–
CCCCCCC(=O)O [C7:0]	126 µM	–
CC(C)C(=O)O [2MP, 2-methyl-propanoic acid]	–	EC50 [2]: 234 µM
CCCCCC(=O)O [C6:0]	72.4 µM	–
CCCCCCCC(=O)O [C8:0]	–	mGαi recruitment ([1]; partial agonist, AUC over 10 min, -log10 of EC50, unreliable (EC50 above the 1 mM dose of Figure 1)): 2.57 ± 0.40
